A short description of data set [1]: Screen of pH-based color changing tracers in biocompatible-grade silicone material. The format is physicochemical. Conditions: biocompatible-grade silicone placed into an aqueous environment. On the procedure: For the second approach, research efforts focused on developing systems for analyzing biological constituents that diffuse into the ring causing a pH change (FIG. 2B, ii). To accomplish this testing strategy, a variety of pH-based color changing formulations were evaluated in biocompatible-grade silicone material. […] This material screen also facilitated the abandonment of tracers with poor performance, such as highly hydrophilic molecular families with high expulsion tendencies.

The nature of data set [2]: Diffusion of indicator out of silicone (PDMS) vaginal ring into surrounding solution. The data set is classed as physicochemical. Conditions: aqueous conditions, over the course of one week (FIG. 3B). On the procedure: Two different approaches were tested to assess the usage of the vaginal ring (FIG. 2A and FIG. 2B). First, a system with signal change resultant of indicator diffusion (i) out of the ring was tested (FIG. 2A).
In these cases, silicone (polydimethyl siloxane, PDMS) was utilized in combination with rhodamine-B, fluorescein, and a rhodamine-B/Brilliant Blue combination. (FIG. 3A).

For `O=C1c2ccccc2C(=O)c2c1ccc(O)c2O` [Alazarin], the “leaching of tracer from the silicone material” value in data set [1] is reported as “readily leached from the silicone material”.
The same measure, in the same setting: the result for `CN(C)c1ccc(/N=N/c2ccccc2C(=O)O)cc1` [Methyl Red] reads “readily leached from the silicone material”.
For the compound `CCN(CC)c1ccc2c(-c3ccccc3C(=O)O)c3ccc(=[N+](CC)CC)cc-3oc2c1.[Cl-]` [rhodamine-B], the “release of indicator from the silicone material” value in data set [2] is recorded as “readily released from the silicone material”.

These data come from patent US11147763B2, “Vaginal ring with visual indication of use” (RESEARCH TRIANGLE INSTITUTE, priority 2015, dated 2021).
